# Data taken from patent US20150320787A1, “COBALAMIN COMPOSITIONS AND METHODS FOR TREATING OR PREVENTING MUCOSITIS” (OraHealth Corp., priority 2006, published 2015).
# Assays:
# [1] = Non-blinded test of active adhering dissolving discs in additional subjects; format: in vivo, human
# Text: (§1) Troches in the form of dissolving muco-adhesive tablets may be made by pressing powders including mucoadhesive hydrocolloids. A preferred form of such an adhering troche may be made by mixing dry powders consisting of 80 percent acacia gum (gum arabic) for adhesive and 20 percent xylitol for flavor, then adding up to 1 percent carboxymethylcellulose (CMC), to enhance mouth feel, moderate adhesiveness of the acacia gum, and slow dissolution, and about 500 micrograms of cobalamin. The tablet may be pressed into the shape shown in FIG. 3 for good adhesion to a tooth. Such a tablet is suitably about 8 mm in diameter and about 85 milligrams in weight.
# (§2) The typical instruction to users is to stick a troche in their mouths, just before they go to sleep, between teeth and cheek, placing it on the tongue side of the teeth if the patient suffers particularly from ulcers on or under the tongue and otherwise placing it on the cheek side. In greater detail, the instructions state: “Use after brushing teeth, at least one disc per day, and allow to dissolve for 30 minutes with nothing else in your mouth. In an area of your mouth where you experience sores, use your tongue to hold the dimpled side of the disc against a tooth until it adheres. The disc will slowly dissolve over 10 to 40 minutes, releasing cobalamin which is absorbed directly into the mouth lining tissues. […]
# [2] = Placebo-controlled test of adhering dissolving discs, one each day, in subjects with minor RAU at least monthly; format: in vivo, human; details: active group, seven subjects, discs with 500 mcg methylcobalamin, 30 discs, placebo discs with red food coloring
# Text: as §1, §2
structure (smiles),measurement,setting,value
C/C1=C2/[N-][C@H]([C@H](CC(N)=O)[C@@]2(C)CCC(=O)NC[C@@H](C)OP(=O)([O-])O[C@H]2[C@@H](O)[C@@H](n3cnc4cc(C)c(C)cc43)O[C@@H]2CO)[C@]2(C)N=C(/C(C)=C3N=C(/C=C4N=C1[C@@H](CCC(N)=O)C\4(C)C)[C@@H](CCC(N)=O)[C@]\3(C)CC(N)=O)[C@@H](CCC(N)=O)[C@]2(C)CC(N)=O.[CH3-].[Co+3] [methylcobalamin],time after stopping the discs until an ulcer with a pain level like before starting (mean),[1]; five subjects who reported a benefit and stopped using the discs,4.8 days
same,subjects who reported a benefit of using the discs,"[1]; twenty-five additional non-blinded subjects, active discs with 500 mcg methylcobalamin",96%
same,"subjects who reported a benefit (reduced frequency of minor RAU, reduced duration of ulcers, or reduced peak pain levels)",[2],100%
